Data published in patent US20260091082A1, “CYCLIC PEPTIDE DERIVATIVE COMPOSITION FOR TREATING OR PREVENTING EYE DISEASE” (DKS Co. Ltd., priority 2022, published 2026).
“And” between values parts separate entries of the source, which are not always exact repeats. Equal values may be shown once.

Tested on: anterior chamber aqueous humor pressure load rat model
Assay: Retinal thickness (IPL, INL, ONL) in retinal damage model induced by anterior chamber aqueous humor pressure load
Type: in vivo, Rat; Slc: SD
Details: for Thickness of INL (μm) / Thickness of IPL (μm) / Thickness of ONL (μm): 14 days after model creation, mean ± S.E., 10 animals
Description: • Name: Compound 9 • Source: Synthesized in the above Examples • Used amount: 0.4 mL (50 mg/mL solution) • Storage conditions: Freezing, light shielding
Method for preparing test substance (1 mg/mL): A high concentration solution prepared at 50 mg/mL was diluted 50 times with a medium to prepare a 1 mg/mL administration solution.
• Name: MK-801 • Distributor: SIGMA-ALDRICH • Use amount: 0.0501 g • Storage condition: refrigerated (2° C. to 8° C.)
Method for preparing positive control substance (10 mg/mL): 0.0501 g was weighed out and made up to a total volume of 5 mL with a control substance (physiological saline).
• Species and strains: Rat; Slc: SD • Number of animals on arrival and sex: 50 males • Age in weeks at arrival: 6 weeks old • Body weight range at arrival: 147.2 to 170.0 g • Source: Japan SLC, Inc.
Grouping was performed two days before the first creation of the retinal damage model induced by an anterior chamber aqueous humor pressure load. Using the daily body weight as an index, stratified random allocation was performed using SAS (Ver. 9.3, SAS Institute Japan Ltd.) and EXSUS (Ver. 8.0, CAC Croit Corporation) so that an average value of the body weights of each group was approximately uniform.
• Administration route: Eyedrop administration, intravenous administration • Administration method (eyedrop): Eyedrop administration was performed on a treated eye (right eye) of a rat using a micropipette 4 times a day (at intervals of 1.5 hours or more). • Administration method (intravenous): The amount of administration solution, calculated from the body weight on the day of administration, was administered from the tail vein using a syringe and an injection needle about 30 minutes before ischemic load. • Time of administration: Administration was performed according to the following schedule.
1. 10 mg/kg xylazine hydrochloride was intramuscularly administered on the model creation day (day 0). A rat was placed in an anesthesia box and subjected to general anesthesia with isoflurane (5%, oxygen:nitrous oxide=1:3). When anesthesia was effective, the rat was taken out of the anesthesia box, an inhalation anesthetic mask was worn, and anesthesia was maintained with isoflurane (1% to 5%, oxygen nitrous oxide=1:3).
2. The body temperature was maintained at 37° C. with a warming mat, and a mydrin P ophthalmic solution was instilled in the right eye (treated eye) of the rat to dilate the pupil, then the cravit ophthalmic solution 1.5% (Santen Pharmaceutical Co., Ltd.) was instilled.
3. A bottle of an IV bag containing physiological saline was previously suspended so that a water surface was 155 cm (100 mmHg or more) higher than the eye of the rat. The IV bag was connected to a pediatric infusion set (Terumo Corporation), a 27 G injection needle thereof was inserted into and fixed to the anterior chamber while slightly dripping the liquid from a needle tip. The model was created in the light phase (6:00 to 18:00) in consideration of the diurnal variation of the intraocular pressure.
4. After the needle was inserted into the anterior chamber, pressure (100 mmHg or more) was loaded and maintained in the anterior chamber by associating the reflux system.
5. After an ischemic load for 45 minutes, the injection needle and the like were removed, the inhalation anesthetic mask was removed, and the rat was sufficiently woken up under a warming mat, and then returned to the cage.
6. For 2 days after surgery, 10 mg/kg xylazine hydrochloride was intramuscularly administered as an analgesic for the purpose of alleviating the pain after the treatment.
1. Fourteen days after model creation, general anesthesia was performed with isoflurane (5%, oxygen:nitrous oxide=1:3), euthanasia was then performed by exsanguination, a suture was placed as a marker at the 12 o'clock position of the ocular conjunctiva, and eyeball enucleation was performed.
2. […]

[1] = 300 μm from optic disk, 1 mg/mL eye drop 4 times/day for 13 days from the day after model creation (test group 3)
[2] = 300 μm from optic disk, 1 mg/mL eye drop 4 times/day for 13 days from the day after model creation (test group 3), listed as compound 9
[3] = 300 μm from optic disk, (pre) 1 mg/mL eye drop 4 times/day on the 2 days before model creation (test group 2)
[4] = 300 μm from optic disk, (pre) 1 mg/mL eye drop 4 times/day on the 2 days before model creation (test group 2), listed as compound 9
[5] = 600 μm from optic disk, 1 mg/mL eye drop 4 times/day for 13 days from the day after model creation (test group 3)
[6] = 600 μm from optic disk, 1 mg/mL eye drop 4 times/day for 13 days from the day after model creation (test group 3), listed as compound 9
[7] = 600 μm from optic disk, (pre) 1 mg/mL eye drop 4 times/day on the 2 days before model creation (test group 2)
[8] = 600 μm from optic disk, (pre) 1 mg/mL eye drop 4 times/day on the 2 days before model creation (test group 2), listed as compound 9
[9] = 900 μm from optic disk, 1 mg/mL eye drop 4 times/day for 13 days from the day after model creation (test group 3)
[10] = 900 μm from optic disk, 1 mg/mL eye drop 4 times/day for 13 days from the day after model creation (test group 3), listed as compound 9
[11] = 900 μm from optic disk, (pre) 1 mg/mL eye drop 4 times/day on the 2 days before model creation (test group 2)

## CC[C@@]1(C)Oc2cc(ccc2O)C[C@H](NC)C(=O)N[C@@H](C(C)C)C(=O)N[C@@H]1C(=O)N[C@@H](CC(=O)O)C(=O)O [Compound 9]
1 mg/mL eye drop (not pre), right eye, 300 μm from optic disk, individual measurements per animal
  Thickness of INL (μm), Distance from Optic Disk 300 μm: 27.268 μm and 29.194 μm and 27.960 μm and 26.601 μm and 24.843 μm (2×) and 25.835 μm and 20.052 μm and 21.030 μm and 18.618 μm and 25.039 μm and 27.705 μm and 29.211 μm and 23.276 μm and 30.228 μm and 28.329 μm (2×) and 29.740 μm (2×) and 27.292 μm and 28.168 μm and 41.632 μm and 38.927 μm and 48.313 μm and 31.260 μm and 35.869 μm and 37.963 μm and 31.090 μm and 28.954 μm and 30.909 μm
1 mg/mL eye drop (not pre), right eye, 300 μm from optic disk, individual measurements per animal, listed as compond 9
  Thickness of IPL (μm), Distance from Optic Disk 300 μm: 32.198 μm and 30.002 μm and 34.224 μm and 39.119 μm and 37.558 μm and 34.827 μm and 27.585 μm and 28.700 μm and 33.412 μm and 37.176 μm (3×) and 37.457 μm and 36.016 μm and 35.842 μm and 37.411 μm and 38.117 μm and 35.930 μm and 36.185 μm and 37.237 μm and 38.550 μm and 39.901 μm and 45.876 μm and 47.765 μm and 46.968 μm and 35.532 μm and 36.791 μm and 36.389 μm and 42.704 μm and 39.019 μm
1 mg/mL eye drop (not pre), right eye, 300 μm from optic disk, mean per animal
  Thickness of INL (μm), Distance from Optic Disk 300 μm, Mean: 28.141 μm and 25.760 μm and 19.900 μm and 25.862 μm and 27.572 μm and 28.454 μm and 28.746 μm and 42.957 μm and 35.031 μm and 30.318 μm
1 mg/mL eye drop (not pre), right eye, 300 μm from optic disk, mean per animal, listed as compond 9
  Thickness of IPL (μm), Distance from Optic Disk 300 μm, Mean: 32.141 μm and 37.168 μm and 29.899 μm and 36.883 μm and 36.810 μm and 36.744 μm and 38.563 μm and 46.870 μm and 36.237 μm and 39.633 μm
1 mg/mL eye drop (not pre), right eye, 600 μm from optic disk, individual measurements per animal
  Thickness of INL (μm), Distance from Optic Disk 600 μm: 24.738 μm and 26.582 μm and 31.689 μm and 28.581 μm and 25.207 μm and 26.625 μm and 29.576 μm and 28.954 μm and 37.237 μm and 34.673 μm and 26.256 μm and 29.926 μm and 35.484 μm and 34.715 μm and 36.694 μm and 38.253 μm and 32.381 μm and 33.458 μm and 33.871 μm and 36.611 μm and 27.419 μm and 34.733 μm and 25.544 μm and 26.908 μm and 37.411 μm and 29.937 μm and 35.493 μm and 34.034 μm and 32.419 μm and 29.046 μm
1 mg/mL eye drop (not pre), right eye, 600 μm from optic disk, individual measurements per animal, listed as compond 9
  Thickness of IPL (μm), Distance from Optic Disk 600 μm: 38.128 μm and 36.322 μm and 43.429 μm and 43.876 μm and 37.066 μm and 37.938 μm and 42.704 μm and 40.500 μm and 46.031 μm and 45.964 μm and 42.314 μm (2×) and 45.398 μm and 49.200 μm and 42.129 μm and 48.205 μm and 50.755 μm and 43.015 μm and 42.630 μm and 42.759 μm and 41.121 μm and 42.214 μm and 37.880 μm and 41.066 μm and 41.515 μm and 38.919 μm and 45.161 μm and 49.299 μm and 44.538 μm and 46.083 μm
1 mg/mL eye drop (not pre), right eye, 600 μm from optic disk, mean per animal
  Thickness of INL (μm), Distance from Optic Disk 600 μm, Mean: 26.246 μm and 31.668 μm and 25.792 μm and 28.479 μm and 36.440 μm and 28.706 μm and 35.231 μm and 36.327 μm and 32.753 μm and 33.176 μm
1 mg/mL eye drop (not pre), right eye, 600 μm from optic disk, mean per animal, listed as compond 9
  Thickness of IPL (μm), Distance from Optic Disk 600 μm, Mean: 38.524 μm and 43.173 μm and 37.628 μm and 41.423 μm and 44.503 μm and 42.210 μm and 45.497 μm and 49.420 μm and 43.394 μm and 43.719 μm
1 mg/mL eye drop (not pre), right eye, 900 μm from optic disk, individual measurements per animal
  Thickness of INL (μm), Distance from Optic Disk 900 μm: 23.463 μm and 23.821 μm and 26.168 μm and 31.627 μm and 31.452 μm and 31.822 μm and 18.956 μm and 25.938 μm and 21.867 μm and 22.952 μm and 23.718 μm and 22.465 μm and 26.601 μm and 27.289 μm and 29.587 μm and 30.400 μm and 26.367 μm and 26.057 μm and 35.226 μm and 33.688 μm and 33.919 μm and 36.066 μm and 40.039 μm and 42.383 μm and 29.394 μm and 29.751 μm and 27.773 μm and 29.233 μm and 27.808 μm and 25.454 μm
1 mg/mL eye drop (not pre), right eye, 900 μm from optic disk, individual measurements per animal, listed as compond 9
  Thickness of IPL (μm), Distance from Optic Disk 900 μm: 39.528 μm and 37.965 μm and 40.039 μm and 50.240 μm and 47.772 μm and 44.149 μm and 38.417 μm and 36.462 μm and 38.383 μm and 39.277 μm and 38.777 μm and 38.865 μm and 45.233 μm and 47.955 μm and 43.645 μm and 43.616 μm and 43.735 μm and 42.098 μm and 53.201 μm and 48.131 μm and 47.334 μm and 50.136 μm and 51.594 μm and 51.265 μm and 43.640 μm and 42.918 μm and 42.582 μm and 46.425 μm and 48.902 μm and 47.239 μm
1 mg/mL eye drop (not pre), right eye, 900 μm from optic disk, mean per animal
  Thickness of INL (μm), Distance from Optic Disk 900 μm, Mean: 24.484 μm and 31.634 μm and 22.254 μm and 23.045 μm and 27.826 μm and 27.608 μm and 34.278 μm and 39.496 μm and 28.973 μm and 27.498 μm
1 mg/mL eye drop (not pre), right eye, 900 μm from optic disk, mean per animal, listed as compond 9
  Thickness of IPL (μm), Distance from Optic Disk 900 μm, Mean: 39.177 μm and 47.387 μm and 37.754 μm and 38.973 μm and 45.611 μm and 43.150 μm and 49.555 μm and 50.998 μm and 43.047 μm and 47.522 μm
[1]
  Thickness of INL (μm): 29.27±1.94 μm
  Thickness of IPL (μm): 37.09±1.42 μm
  Thickness of ONL (μm): 42.79±2.60 μm
[2]
  Thickness of INL (μm): 29.27 ± 1.94 μm
  Thickness of ONL (μm): 42.79 ± 2.60 μm
[3]
  Thickness of INL (μm): 28.93±1.27 μm
  Thickness of IPL (μm): 31.31±0.93 μm
  Thickness of ONL (μm): 40.06±1.61 μm
[4]
  Thickness of INL (μm): 28.93 ± 1.27 μm
  Thickness of ONL (μm): 40.06 ± 1.61 μm
[5]
  Thickness of INL (μm): 31.48±1.26 μm
  Thickness of IPL (μm): 42.95±1.07 μm
  Thickness of ONL (μm): 42.33±1.81 μm
[6]
  Thickness of INL (μm): 31.48 ± 1.26 μm
  Thickness of ONL (μm): 42.33 ± 1.81 μm
[7]
  Thickness of INL (μm): 31.25±1.29 μm
  Thickness of IPL (μm): 38.85±1.23 μm
  Thickness of ONL (μm): 43.03±0.82 μm
[8]
  Thickness of INL (μm): 31.25 ± 1.29 μm
  Thickness of ONL (μm): 43.03 ± 0.82 μm
[9]
  Thickness of IPL (μm): 44.32±1.47 μm
  Thickness of ONL (μm): 39.42±1.92 μm
[10]
  Thickness of INL (μm): 28.71 ± 1.67 μm
  Thickness of ONL (μm): 39.42 ± 1.92 μm
[11]
  Thickness of INL (μm): 30.39±1.24 μm
  Thickness of IPL (μm): 41.51±1.27 μm
